Data on 59 sequences can be found in the OligoGym collection.

After the bases stand the sugars from the 5' end (letter, count) and the backbone: PS all phosphorothioate, else s phosphorothioate and o phosphodiester by linkage. Methylation of C is not given here. e = 2'-O-(2-methoxyethyl) (MOE); k = constrained ethyl (cEt); d = 2'-deoxy (DNA); m = 2'-O-methyl

For this series, the target named is HSD17B13. To be noted: ASO, HepaRG.

Sequence “CTGAAATTGATACACC (sugars kkdddddddddkekek, PS)” returned a target mRNA inhibition (1 µM) of 45%.
As for CTGAGAAGATCGGCTG (sugars k3 d10 k3, PS), the target mRNA inhibition (1 µM) came out at 37%.
CTGAGCTAGACAATTG (sugars k3 d10 k3, PS) had a target mRNA inhibition (1 µM) of 56%.
CTGATGTCAGACCTCT (sugars k3 d10 k3, PS) came in with a target mRNA inhibition (1 µM) of 35%.
For the sequence CTGATTTAGTTGGTAG (sugars k3 d10 k3, PS), the target mRNA inhibition amounted to 0% (0.02 µM); 0% (0.078 µM); 41% (0.313 µM); 78% (1 µM); 70% (1.25 µM); 88% (5 µM).
In turn, CTGCCAGGGAATGCTC (sugars k3 d10 k3, PS) had a target mRNA inhibition (1 µM) of 23%.
For CTGCTACTCTAGGAGA (sugars k3 d10 k3, PS), the target mRNA inhibition (1 µM) was 66%.
Still for that read-out and setting: as for “CTGCTAGTGCCAAACC (sugars kkdddddddddkekek, PS)”, the figure is 51%.
Same read-out and setting: as for “CTGCUAGTGCCAAACC (sugars k3 d1 m1 d8 k3, PS)”, the figure is 67%.
Still for that read-out and setting: in the case of “CTGCUGCTAGTGCCAA (sugars k3 d1 m1 d8 k3, PS)” it was 66%; in that of CTGGAAGGAGGATTCA (sugars k3 d10 k3, PS), 39%.
Where the note is “1 µM”, CTGGAGGTATGTCATA (sugars k3 d10 k3, PS) gave a target mRNA inhibition of 23%.
Same read-out and setting: in the case of CTGGATATACTGTCCC (sugars k3 d10 k3, PS) it was 20%.
For the setting “1 µM”, CTGGGACCAAGGATAT (sugars k3 d10 k3, PS) yielded a target mRNA inhibition of 32%.
Under “1 µM”, CTGGGATACTATTCTC (sugars k3 d10 k3, PS) came in with a target mRNA inhibition of 57%.
On the same count and under the same terms, as for CTGGTTCAGTCCTTGT (sugars k3 d10 k3, PS), the figure is 63%; as for CTGTGAGAGGATAGTG (sugars k3 d10 k3, PS), 33%.
Still for that read-out and setting: as for “CTGTGGCATGGCTACA (sugars k3 d1 m1 d8 k3, PS)”, the figure is 35%; as for “CTGTGGCATGGCTACA (sugars k3 d9 k3 e1, PS)”, 58%.
In the case of CTGTGGCATGGCTACA (sugars k3 d10 k3, PS), the target mRNA inhibition (1 µM) worked out at 66%.
Still for that read-out and setting: in the case of CTTAATTTTCGGGTTC (sugars k3 d10 k3, PS) it was 37%; in that of CTTACATGATTAAGCA (sugars k3 d10 k3, PS), 44%.
On to CTTACCAATATGGGAT (sugars k3 d10 k3, PS), for which the target mRNA inhibition (1 µM) was determined as 11%.
Still for that read-out and setting: in the case of CTTACGACTTCATCTG (sugars k3 d10 k3, PS) it was 38%; in that of CTTATGATAATTTGGT (sugars k3 d10 k3, PS), 2%.
On the same count and under the same terms, in the case of “CTTATTGGTAAGTATT (sugars kkdddddddddkekek, PS)” it was 9%; in that of “CTTAUTGGTAAGTATT (sugars k3 d1 m1 d8 k3, PS)”, 0%; in that of CTTCACTATATTGCAT (sugars k3 d10 k3, PS), 50%.
On the same count and under the same terms, in the case of CTTCAGTTAGCAGCTA (sugars k3 d10 k3, PS) it was 50%.
In the case of CTTCCAAGCATTCCAT (sugars k3 d10 k3, PS), the target mRNA inhibition (1 µM) was 57%.
The same measure, in the same setting: in the case of CTTCTATTAGTTGGCC (sugars k3 d10 k3, PS) it was 11%.
In turn, CTTGACAATGGTTGCC (sugars k3 d10 k3, PS) came in with a target mRNA inhibition (1 µM) of 58%.
Still for that read-out and setting: as for CTTGATCTCTTAGCTG (sugars k3 d10 k3, PS), the figure is 51%; as for CTTGGAAGGAGACTGG (sugars k3 d10 k3, PS), 60%.
Still for that read-out and setting: in the case of CTTGGGTCCATTGTTT (sugars k3 d10 k3, PS) it was 44%.
As to CTTGTGTAGTCCTAGG (sugars k3 d10 k3, PS), the target mRNA inhibition runs as follows: (0.02 µM) 7%; (0.078 µM) 13%; (0.313 µM) 39%; (1 µM) 71%; (1.25 µM) 70%; (5 µM) 87%.
As for CTTTAGCTTAAACTCC (sugars k3 d10 k3, PS), where the note is “1 µM”, the target mRNA inhibition amounted to 69%.
Still for that read-out and setting: in the case of “CTTTGAGACTCTTGTT (sugars k3 d1 m1 d8 k3, PS)” it was 15%; in that of “CTTTGCAGCATTGATT (sugars k3 d9 k3 e1, PS)”, 56%; in that of “CTTTGCAGCATTGATT (sugars kkdddddddddkekek, PS)”, 49%.
Same read-out and setting: as for CTTTTAGTCAGGTAGA (sugars k3 d10 k3, PS), the figure is 33%.
On the same count and under the same terms, in the case of CTTTTGGTGGACTTCA (sugars k3 d10 k3, PS) it was 10%; in that of “CTTTUTATAGACTGGG (sugars k3 d1 m1 d8 k3, PS)”, 34%.
For the sequence GAAAACTCAGCCAGCA (sugars k3 d10 k3, PS), the target mRNA inhibition runs as follows: (0.02 µM) 0%; (0.078 µM) 2%; (0.313 µM) 51%; (1 µM) 78%; (1.25 µM) 73%; (5 µM) 75%.
Consider GAAAAGATGTACACTG (sugars k3 d10 k3, PS), for which, for the setting “1 µM”, the target mRNA inhibition worked out at 56%.
Same read-out and setting: in the case of GAAAAGCCTGACTCAC (sugars k3 d10 k3, PS) it was 48%.
Consider GAAATCTTGTGTAACT (sugars k3 d10 k3, PS), for which the target mRNA inhibition runs as follows: (0.02 µM) 0%; (0.078 µM) 4%; (0.313 µM) 37%; (1 µM) 69%; (1.25 µM) 71%; (5 µM) 87%.
As for “GAAATTGATACACCAA (sugars kkdddddddddkekek, PS)”, for the setting “1 µM”, the target mRNA inhibition worked out at 68%.
Same read-out and setting: as for “GAAAUTGATACACCAA (sugars k3 d1 m1 d8 k3, PS)”, the figure is 58%; as for “GAACAATATGGGATGA (sugars kkdddddddddkekek, PS)”, 49%.
GAACACTGTCATAAAG (sugars k3 d10 k3, PS) gave a target mRNA inhibition (1 µM) of 43%.
Turning to GAACCAATATGCTCTG (sugars k3 d10 k3, PS), where the note is “1 µM”, the target mRNA inhibition stood at 61%.
For GAACCGTATTCCCAAC (sugars k3 d10 k3, PS), the target mRNA inhibition (1 µM) came to 72%.
Same read-out and setting: as for GAACCTATGTGTGCAC (sugars k3 d10 k3, PS), the figure is 53%.
Regarding GAAGGATTTCTAGGAT (sugars k3 d10 k3, PS), the target mRNA inhibition is 0% (0.02 µM); 0% (0.078 µM); 24% (0.313 µM); 71% (1 µM); 61% (1.25 µM); 88% (5 µM).
Turning to “GAAGTTAGTATAGTTA (sugars k3 d9 k3 e1, PS)”, where the note is “1 µM”, the target mRNA inhibition is 75%.
The same measure, in the same setting: as for GAAGTTAGTATAGTTA (sugars k3 d10 k3, PS), the figure is 59%.
Under “1 µM”, GAAGTTCTGATGTCAG (sugars k3 d10 k3, PS) had a target mRNA inhibition of 0%.
As to GAATAGCCATGTAGCT (sugars k3 d10 k3, PS), under “1 µM”, the target mRNA inhibition amounted to 21%.
